In PubChem BioAssay (NCI):
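Assay format: 96-well plates, 48-hour exposure. GI50 marks 50% less growth. TGI is the concentration that stops growth completely.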

Legend:
Experiment in all cases: NCI-60 cell line screen, 48 h
[1] = system: A498 renal
[2] = system: SN12C renal
[3] = system: CAKI-1 renal
[4] = system: SK-MEL-2 melanoma
[5] = system: LOX IMVI melanoma
[6] = system: HS 578T breast
[7] = system: NCI-H522 lung
[8] = system: DU-145 prostate
[9] = system: NCI-H226 lung
[10] = system: HT29 colon
[11] = system: KM12 colon
[12] = system: M14 melanoma
[13] = system: U251 CNS
[14] = system: OVCAR-8 ovarian
[15] = system: K-562 leukemia
[16] = system: 786-0 renal
[17] = system: OVCAR-4 ovarian
[18] = system: NCI-H23 lung
[19] = system: SR leukemia
[20] = system: HCC-2998 colon
[21] = system: SF-539 CNS
[22] = system: NCI/ADR-RES ovarian
[23] = system: HCT-116 colon
[24] = system: IGROV1 ovarian
[25] = system: MDA-MB-231 breast
[26] = system: UO-31 renal
[27] = system: SW-620 colon
[28] = system: RXF 393 renal
[29] = system: SK-MEL-28 melanoma
[30] = system: COLO 205 colon
[31] = system: PC-3 prostate
[32] = system: SK-MEL-5 melanoma
[33] = system: SNB-75 CNS
[34] = system: MALME-3M melanoma
[35] = system: HL-60(TB) leukemia
[36] = system: OVCAR-5 ovarian
[37] = system: NCI-H460 lung
[38] = system: OVCAR-3 ovarian
[39] = system: CCRF-CEM leukemia
[40] = system: SF-268 CNS
[41] = system: SNB-19 CNS
[42] = system: ACHN renal
[43] = system: MDA-MB-435
[44] = system: A549 NSCLC
[45] = system: HCT-15 colon
[46] = system: SK-OV-3 ovarian
[47] = system: HOP-92 NSCLC
[48] = system: MCF7 breast
[49] = system: HOP-62 NSCLC
[50] = system: RPMI-8226 leukemia
[51] = system: MOLT-4 leukemia
[52] = system: BT-549 breast
[53] = system: SF-295 CNS

With `OCc1ccc(N2CCc3cccc(F)c3C2)cc1Cl` the GI50 [1] was < 0.0145 µM, the TGI [1] was 0.0405 µM and the GI50 [2] was 14.6 µM. The TGI [2] was > 70.2 µM, the GI50 [3] was 1.19 µM and the TGI [3] was 21.8 µM. The TGI [4] was 30.5 µM, the GI50 [5] was 23.5 µM and the TGI [5] was > 63.2 µM. It also gave a GI50 [6] of 21.9 µM, a TGI [6] of 77.8 µM and a GI50 [7] of 13.4 µM. The TGI [7] was 36.3 µM, the GI50 [8] was 4.5 µM and the TGI [8] was 30.3 µM. For the same compound, the GI50 [9] was 0.0191 µM, the TGI [9] was 0.0936 µM and the GI50 [10] was 0.0334 µM. It also gave a TGI [10] of 35.5 µM, a GI50 [11] of 15.7 µM and a TGI [11] of 48.6 µM. For the same compound, the GI50 [12] was 29.3 µM, the TGI [12] was > 78.7 µM and the GI50 [13] was < 0.0297 µM. The TGI [13] was 36.3 µM, the GI50 [14] was 5.85 µM and the TGI [14] was 41.9 µM. The GI50 [15] was < 0.0206 µM, the TGI [15] was 16.5 µM and the GI50 [16] was 16.7 µM. The TGI [16] was 44.7 µM, the GI50 [17] was 0.0279 µM and the TGI [17] was 0.201 µM. It also gave a GI50 [18] of 13.9 µM, a TGI [18] of 40.9 µM and a GI50 [19] of 19.3 µM. For the same compound, the TGI [19] was 58.8 µM, the GI50 [20] was 1.96 µM and the TGI [20] was 11 µM. The GI50 [21] was 27.8 µM, the TGI [21] was > 87.7 µM and the GI50 [22] was 7.68 µM. For the same compound, the TGI [22] was 37.1 µM, the GI50 [23] was < 0.0104 µM and the TGI [23] was 14.6 µM. It also gave a GI50 [24] of 0.025 µM, a TGI [24] of 0.101 µM and a GI50 [25] of 13.4 µM. It also gave a TGI [25] of 43.5 µM, a GI50 [26] of 14.5 µM and a TGI [26] of 46.6 µM. For the same compound, the GI50 [27] was < 0.0209 µM, the TGI [27] was > 79.7 µM and the GI50 [28] was 12.6 µM. For the same compound, the TGI [28] was 27.9 µM, the GI50 [29] was 25.7 µM and the TGI [29] was > 79.7 µM. The GI50 [30] was 0.0197 µM, the TGI [30] was 0.175 µM and the GI50 [31] was 16 µM. For the same compound, the TGI [31] was 47.9 µM, the GI50 [32] was 14.9 µM and the TGI [32] was 35.4 µM. For the same compound, the GI50 [33] was 13.9 µM, the TGI [33] was 47.7 µM and the GI50 [34] was 24.1 µM. It also gave a TGI [34] of 63.6 µM, a GI50 [35] of 18.4 µM and a TGI [35] of 53.2 µM. The GI50 [36] was 0.0253 µM, the TGI [36] was 0.151 µM and the GI50 [37] was < 0.0194 µM. The TGI [37] was 1.23 µM, the GI50 [38] was < 0.0169 µM and the TGI [38] was 0.0505 µM. It also gave a GI50 [39] of 24.9 µM, a TGI [39] of 99.1 µM and a GI50 [40] of 24.5 µM. For the same compound, the TGI [40] was > 89.4 µM, the GI50 [41] was 30.9 µM and the TGI [41] was > 100 µM. It also gave a GI50 [42] of 20.7 µM, a TGI [42] of 67.3 µM and a GI50 [43] of 19.5 µM. The TGI [43] was 51.8 µM, the GI50 [44] was 0.189 µM and the TGI [44] was 15.7 µM. The GI50 [45] was 10.4 µM, the TGI [45] was 36.3 µM and the GI50 [46] was 1.89 µM. The TGI [46] was 14.6 µM, the GI50 [47] was 0.0873 µM and the TGI [47] was 14.2 µM. It also gave a TGI [48] of 53.4 µM, a GI50 [49] of 0.0275 µM and a TGI [49] of 27.2 µM. It also gave a TGI [50] of 20.5 µM, a GI50 [51] of 23 µM and a TGI [51] of 71 µM. For the same compound, the GI50 [52] was 16.9 µM, the TGI [52] was 36.7 µM and the GI50 [53] was 0.246 µM. It also gave a TGI [53] of 18.1 µM.
